Data from ChEMBL document CHEMBL1143824, “National survey on the susceptibility of Bacteroides fragilis group: report and analysis of trends in the United States from 1997 to 2004” (2007).
Converted amounts (≈) assume the structure as drawn.

Assays:
Assay type in all cases: functional
[1] = test system: Bacteroides caccae; assay: Antimicrobial activity against Bacteroides caccae isolates by agar dilution method
[2] = test system: Bacteroides thetaiotaomicron; assay: Antimicrobial activity against Bacteroides thetaiotaomicron assessed as percent resistant isolates
[3] = test system: Parabacteroides distasonis; assay: Antimicrobial activity against Bacteroides distasonis isolates by agar dilution method
[4] = test system: Bacteroides stercoris; assay: Antimicrobial activity against Bacteroides stercoris assessed as percent resistant isolates
[5] = test system: Bacteroides caccae; assay: Antimicrobial activity against Bacteroides caccae assessed as percent resistant isolates
[6] = test system: Parabacteroides distasonis; assay: Antimicrobial activity against Bacteroides distasonis assessed as percent resistant isolates
[7] = test system: Bacteroides thetaiotaomicron; assay: Antimicrobial activity against Bacteroides thetaiotaomicron isolates by agar dilution method
[8] = test system: Bacteroides eggerthii; assay: Antimicrobial activity against Bacteroides eggerthii isolates by agar dilution method
[9] = test system: Bacteroides uniformis; assay: Antimicrobial activity against Bacteroides uniformis assessed as percent resistant isolates
[10] = test system: Bacteroides eggerthii; assay: Antimicrobial activity against Bacteroides eggerthii assessed as percent resistant isolates
[11] = test system: Parabacteroides merdae; assay: Antimicrobial activity against Bacteroides merdae isolates by agar dilution method
[12] = test system: Bacteroides uniformis; assay: Antimicrobial activity against Bacteroides uniformis isolates by agar dilution method
[13] = test system: Bacteroides fragilis; assay: Antimicrobial activity against Bacteroides fragilis assessed as percent resistant isolates
[14] = test system: Bacteroides stercoris; assay: Antimicrobial activity against Bacteroides stercoris isolates by agar dilution method
[15] = test system: Bacteroides ovatus; assay: Antimicrobial activity against Bacteroides ovatus assessed as percent resistant isolates
[16] = test system: Bacteroides fragilis; assay: Antimicrobial activity against Bacteroides fragilis isolates by agar dilution method
[17] = test system: Phocaeicola vulgatus; assay: Antimicrobial activity against Bacteroides vulgatus isolates by agar dilution method
[18] = test system: Parabacteroides merdae; assay: Antimicrobial activity against Bacteroides merdae assessed as percent resistant isolates
[19] = test system: Phocaeicola vulgatus; assay: Antimicrobial activity against Bacteroides vulgatus assessed as percent resistant isolates
[20] = test system: Bacteroides ovatus; assay: Antimicrobial activity against Bacteroides ovatus isolates by agar dilution method

Compound	MIC [1] [µg/mL]	MIC90 [1] [µg/mL]	Activity [2] [%]	MIC90 [3] [µg/mL]	Activity [4] [%]	Activity [5] [%]	Activity [6] [%]	MIC [7] [µg/mL]	MIC90 [7] [µg/mL]	MIC [8] [µg/mL]	MIC90 [8] [µg/mL]	Activity [9] [%]	Activity [10] [%]	MIC [11] [µg/mL]	MIC90 [11] [µg/mL]	MIC [12] [µg/mL]	MIC90 [12] [µg/mL]	Activity [13] [%]	MIC [14] [µg/mL]	MIC90 [14] [µg/mL]	other results
COC1(NC(=O)Cc2cccs2)C(=O)N2C(C(=O)O)=C(COC(N)=O)CS[C@@H]21 (single isomer, unassigned) [CEFOXITIN]	17.6 (≈ 41.2 µM)	64 (≈ 150 µM)	16.8	128 (≈ 299 µM)	10.9	10.9	29.9	29.5 (≈ 69 µM)	64 (≈ 150 µM)	17.6 (≈ 41.2 µM)	64 (≈ 150 µM)	7.5	10.9	17.6 (≈ 41.2 µM)	64 (≈ 150 µM)	12.9 (≈ 30.2 µM)	32 (≈ 74.9 µM)	5.2	17.6 (≈ 41.2 µM)	64 (≈ 150 µM)	MIC [3]: 34.2 µg/mL (≈ 80 µM); Activity [15]: 17.2%; MIC [16]: 15.4 µg/mL (≈ 36.1 µM); MIC90 [16]: 32 µg/mL (≈ 74.9 µM); MIC [17]: 10.5 µg/mL (≈ 24.6 µM); MIC90 [17]: 32 µg/mL (≈ 74.9 µM); Activity [18]: 10.9%; Activity [19]: 0.3%; MIC [20]: 27.2 µg/mL (≈ 63.5 µM); MIC90 [20]: 64 µg/mL (≈ 150 µM)
CCC[C@@H]1C[C@@H](C(=O)NC([C@H](C)Cl)[C@H]2O[C@H](SC)[C@H](O)[C@@H](O)[C@H]2O)N(C)C1 (single isomer, unassigned) [CLINDAMYCIN]	3.63 (≈ 8.54 µM)	256 (≈ 602 µM)	33.3	256 (≈ 602 µM)	28.2	28.2	29.6	6.62 (≈ 15.6 µM)	256 (≈ 602 µM)	3.63 (≈ 8.54 µM)	256 (≈ 602 µM)	28.9	28.2	3.63 (≈ 8.54 µM)	256 (≈ 602 µM)	4.22 (≈ 9.93 µM)	256 (≈ 602 µM)	19.3	3.63 (≈ 8.54 µM)	256 (≈ 602 µM)	MIC [3]: 4.51 µg/mL (≈ 10.6 µM); Activity [15]: 33.4%; MIC [16]: 1.89 µg/mL (≈ 4.45 µM); MIC90 [16]: 256 µg/mL (≈ 602 µM); MIC [17]: 4.31 µg/mL (≈ 10.1 µM); MIC90 [17]: 256 µg/mL (≈ 602 µM); Activity [18]: 28.2%; Activity [19]: 35.3%; MIC [20]: 5.89 µg/mL (≈ 13.9 µM); MIC90 [20]: 256 µg/mL (≈ 602 µM)
C[C@@H](O)[C@H]1C(=O)N2C(C(=O)O)=C(SC3CNC(C(=O)Nc4cccc(C(=O)O)c4)C3)[C@H](C)[C@H]12 (single isomer, unassigned) [ERTAPENEM]	1.03 (≈ 2.17 µM)	4 (≈ 8.41 µM)	0.4	4 (≈ 8.41 µM)	0.5	0.5	1.5	1.69 (≈ 3.55 µM)	4 (≈ 8.41 µM)	1.03 (≈ 2.17 µM)	4 (≈ 8.41 µM)	0.5	0.5	1.03 (≈ 2.17 µM)	4 (≈ 8.41 µM)	0.88 (≈ 1.85 µM)	2 (≈ 4.21 µM)	1.4	1.03 (≈ 2.17 µM)	4 (≈ 8.41 µM)	MIC [3]: 1.77 µg/mL (≈ 3.72 µM); Activity [15]: 0.6%; MIC [16]: 0.79 µg/mL (≈ 1.66 µM); MIC90 [16]: 2 µg/mL (≈ 4.21 µM); MIC [17]: 0.82 µg/mL (≈ 1.72 µM); MIC90 [17]: 2 µg/mL (≈ 4.21 µM); Activity [18]: 0.5%; Activity [19]: 0.3%; MIC [20]: 1.58 µg/mL (≈ 3.32 µM); MIC90 [20]: 4 µg/mL (≈ 8.41 µM)
C[C@@H](O)[C@H]1C(=O)N2C(C(=O)O)=C(SCCNC=N)C[C@H]12 [IMIPENEM ANHYDROUS]	0.35 (≈ 1.17 µM)	1 (≈ 3.34 µM)	0.2	2 (≈ 6.68 µM)	0	0	0.4	0.45 (≈ 1.5 µM)	1 (≈ 3.34 µM)	0.35 (≈ 1.17 µM)	1 (≈ 3.34 µM)	0.5	0	0.35 (≈ 1.17 µM)	1 (≈ 3.34 µM)	0.43 (≈ 1.44 µM)	1 (≈ 3.34 µM)	0.5	0.35 (≈ 1.17 µM)	1 (≈ 3.34 µM)	MIC [3]: 0.95 µg/mL (≈ 3.17 µM); Activity [15]: 0.2%; MIC [16]: 0.31 µg/mL (≈ 1.04 µM); MIC90 [16]: 1 µg/mL (≈ 3.34 µM); MIC [17]: 0.5 µg/mL (≈ 1.67 µM); MIC90 [17]: 1 µg/mL (≈ 3.34 µM); Activity [18]: 0%; Activity [19]: 0.3%; MIC [20]: 0.39 µg/mL (≈ 1.3 µM); MIC90 [20]: 1 µg/mL (≈ 3.34 µM)
C[C@@H](O)[C@H]1C(=O)N2C(C(=O)O)=C(S[C@@H]3CN[C@H](C(=O)N(C)C)C3)[C@H](C)[C@H]12 [MEROPENEM]	0.4 (≈ 1.04 µM)	1 (≈ 2.61 µM)	0.1	2 (≈ 5.22 µM)	0.5	0.5	1.1	0.47 (≈ 1.23 µM)	1 (≈ 2.61 µM)	0.4 (≈ 1.04 µM)	1 (≈ 2.61 µM)	0.5	0.5	0.4 (≈ 1.04 µM)	1 (≈ 2.61 µM)	0.41 (≈ 1.07 µM)	1 (≈ 2.61 µM)	1	0.4 (≈ 1.04 µM)	1 (≈ 2.61 µM)	MIC [16]: 0.38 µg/mL (≈ 0.991 µM); MIC90 [16]: 1 µg/mL (≈ 2.61 µM); MIC [17]: 0.47 µg/mL (≈ 1.23 µM); MIC90 [17]: 1 µg/mL (≈ 2.61 µM); Activity [18]: 0.5%; Activity [19]: 0%
COc1c(N2C[C@@H]3CCCN[C@@H]3C2)c(F)cc2c(=O)c(C(=O)O)cn(C3CC3)c12 [MOXIFLOXACIN]	3.85 (≈ 9.59 µM)	32 (≈ 79.7 µM)	26.3	16 (≈ 39.9 µM)	36.4	36.4	29.2	3.71 (≈ 9.24 µM)	32 (≈ 79.7 µM)	3.85 (≈ 9.59 µM)	32 (≈ 79.7 µM)	38.6	36.4	3.85 (≈ 9.59 µM)	32 (≈ 79.7 µM)	5.57 (≈ 13.9 µM)	32 (≈ 79.7 µM)	27.3	3.85 (≈ 9.59 µM)	32 (≈ 79.7 µM)	MIC [3]: 2.32 µg/mL (≈ 5.78 µM); Activity [15]: 38.3%; MIC [16]: 1.83 µg/mL (≈ 4.56 µM); MIC90 [16]: 8 µg/mL (≈ 19.9 µM); MIC [17]: 7.92 µg/mL (≈ 19.7 µM); MIC90 [17]: 64 µg/mL (≈ 159 µM); Activity [18]: 36.4%; Activity [19]: 54.7%; MIC [20]: 5.49 µg/mL (≈ 13.7 µM); MIC90 [20]: 32 µg/mL (≈ 79.7 µM)
CN(C)c1cc(NC(=O)CNC(C)(C)C)c(O)c2c1C[C@H]1C[C@H]3[C@H](N(C)C)C(O)=C(C(N)=O)C(=O)[C@@]3(O)C(O)=C1C2=O [TIGECYCLINE]	1.51 (≈ 2.58 µM)	8 (≈ 13.7 µM)	3.6	8 (≈ 13.7 µM)	7.2	7.2	2.1	1.57 (≈ 2.68 µM)	8 (≈ 13.7 µM)	1.51 (≈ 2.58 µM)	8 (≈ 13.7 µM)	3.4	7.2	1.51 (≈ 2.58 µM)	8 (≈ 13.7 µM)	0.77 (≈ 1.31 µM)	4 (≈ 6.83 µM)	5.1	1.51 (≈ 2.58 µM)	8 (≈ 13.7 µM)	MIC [3]: 2.09 µg/mL (≈ 3.57 µM); Activity [15]: 3.3%; MIC [16]: 1.59 µg/mL (≈ 2.71 µM); MIC90 [16]: 8 µg/mL (≈ 13.7 µM); MIC [17]: 1.05 µg/mL (≈ 1.79 µM); MIC90 [17]: 4 µg/mL (≈ 6.83 µM); Activity [18]: 7.2%; Activity [19]: 1.6%; MIC [20]: 1.52 µg/mL (≈ 2.6 µM); MIC90 [20]: 8 µg/mL (≈ 13.7 µM)
